The source of these data is ChEMBL document CHEMBL4376806, “Antibiotic Adjuvants: Make Antibiotics Great Again!” (2019).

Test [1] deals with Klebsiella pneumoniae. Put plainly: Inhibition of beta-lactamase TEM-4 in Klebsiella pneumoniae 25637 assessed as potentiation of ceftazidime-induced antibacterial activity by measuring ceftazidime MIC (reference value: 32 ug/ml).
The test system of test [2] is Escherichia coli. Put plainly: Inhibition of beta-lactamase TEM-8 in Escherichia coli CF3 assessed as potentiation of ceftazidime-induced antibacterial activity by measuring ceftazidime MIC (reference value: 64 ug/ml).
In test [3] the test system is Klebsiella pneumoniae. Briefly: Inhibition of Beta-lactamase SHV-2 in Klebsiella pneumoniae IP86 assessed as potentiation of ceftazidime-induced antibacterial activity by measuring ceftazidime MIC (reference value: 64 ug/ml).
Test [4] has as its target Beta-lactamase TEM (Escherichia coli) (UniProt P62593). Put plainly: Inhibition of beta-lactamase TEM-1 in Escherichia coli GN5482 assessed as potentiation of ceftazidime-induced antibacterial activity by measuring ceftazidime MIC (reference value: 4 ug/ml).
Test [5] concerns Klebsiella pneumoniae. Put plainly: Inhibition of beta-lactamase TEM-2 in Klebsiella pneumoniae IP1 assessed as potentiation of ceftazidime-induced antibacterial activity by measuring ceftazidime MIC (reference value: 16 ug/ml).
In test [6] the test system is Escherichia coli. Put plainly: Inhibition of Beta-lactamase PER-1 in Escherichia coli KB10 assessed as potentiation of ceftazidime-induced antibacterial activity by measuring ceftazidime MIC (Rvb >64 ug/ml).
Test [7] concerns Pseudomonas aeruginosa. Put plainly: Synergistic antibacterial activity against Pseudomonas aeruginosa assessed as fractional inhibitory concentration index in presence of ampicillin by checkerboard assay. The test is classed as functional.
Test [8] has as its system Staphylococcus aureus. Put plainly: Inhibition of beta-lactamase in Staphylococcus aureus assessed as potentiation of ampicillin-induced antibacterial activity by measuring ampicillin MIC incubated for 24 hrs by CLSI method (Rvb > 200 ug/ml).
In test [9] the test system is Streptococcus pyogenes. Briefly: Inhibition of beta-lactamase in Streptococcus pyogenes assessed as potentiation of ampicillin-induced antibacterial activity by measuring ampicillin MIC incubated for 24 hrs by CLSI method (Rvb > 200 ug/ml).
Test [10] has as its system Streptococcus pyogenes. Put plainly: Synergistic antibacterial activity against Streptococcus pyogenes assessed as fractional inhibitory concentration index in presence of ampicillin by checkerboard assay. In kind it is functional.
The test system of test [11] is Escherichia coli. Put plainly: Inhibition of beta-lactamase in Escherichia coli assessed as potentiation of ampicillin-induced antibacterial activity by measuring ampicillin MIC incubated for 24 hrs by CLSI method (reference value: 100 ug/ml).
The subject of test [12] is Pseudomonas aeruginosa. Briefly: Inhibition of beta-lactamase in Pseudomonas aeruginosa assessed as potentiation of ampicillin-induced antibacterial activity by measuring ampicillin MIC incubated for 24 hrs by CLSI method (Rvb >200 ug/ml).
Test [13] has as its system Staphylococcus aureus. Briefly: Synergistic antibacterial activity against Staphylococcus aureus assessed as fractional inhibitory concentration index in presence of ampicillin by checkerboard assay. In kind it is functional.
The subject of test [14] is Staphylococcus aureus. Briefly: Potentiation of amikacin-induced antibacterial activity against Staphylococcus aureus 358 assessed as amikacin MIC at 64 ug/ml after 24 hrs by broth microdilution assay (reference value: 156.2 ug/ml). The following applies: Staphylococcus aureus, 358, 24 h. The test is classed as functional. (In general: In broth dilution the organism is exposed to a series of concentrations in liquid medium.)

For test [15], the system named is Escherichia coli. Briefly: Potentiation of gentamicin-induced antibacterial activity against Escherichia coli 27 assessed as gentamicin MIC at 64 ug/ml after 24 hrs by broth microdilution assay (reference value: 625 ug/ml). The following applies: Escherichia coli, 27, 24 h. In kind it is functional.
Test [16] concerns Staphylococcus aureus. Put plainly: Potentiation of gentamicin-induced antibacterial activity against Staphylococcus aureus 358 assessed as gentamicin MIC at 64 ug/ml after 24 hrs by broth microdilution assay (reference value: 312.5 ug/ml). The test is classed as functional. Conditions: Staphylococcus aureus, 358, 24 h.
Test [17] relates to Pseudomonas aeruginosa. Put plainly: Potentiation of amikacin-induced antibacterial activity against Pseudomonas aeruginosa 03 assessed as amikacin MIC at 32 ug/ml after 24 hrs by broth microdilution assay (reference value: 312.5 ug/ml). The following applies: Pseudomonas aeruginosa, 03, 24 h. The test is classed as functional.
In test [18] the test system is Pseudomonas aeruginosa. Briefly: Potentiation of gentamicin-induced antibacterial activity against Pseudomonas aeruginosa 03 assessed as gentamicin MIC at 32 ug/ml after 24 hrs by broth microdilution assay (reference value: 625 ug/ml). In kind it is functional. The following applies: Pseudomonas aeruginosa, 03, 24 h.
Test [19] deals with Staphylococcus aureus. Briefly: Potentiation of neomycin-induced antibacterial activity against Staphylococcus aureus 358 assessed as neomycin MIC at 64 ug/ml after 24 hrs by broth microdilution assay (reference value: 156.2 ug/ml). In kind it is functional. The following applies: Staphylococcus aureus, 358, 24 h.
In test [20] the test system is Escherichia coli. Briefly: Potentiation of amikacin-induced antibacterial activity against Escherichia coli 27 assessed as amikacin MIC at 64 ug/ml after 24 hrs by broth microdilution assay (reference value: 156.2 ug/ml). The test is classed as functional. The following applies: Escherichia coli, 27, 24 h.
Test [21] deals with Escherichia coli. Put plainly: Potentiation of neomycin-induced antibacterial activity against Escherichia coli 27 assessed as neomycin MIC at 64 ug/ml after 24 hrs by broth microdilution assay (reference value: 312.5 ug/ml). In kind it is functional. The following applies: Escherichia coli, 27, 24 h.
Test [22] deals with Staphylococcus epidermidis. Conditions: 01B116.
Description: Inhibition of beta-lactamase in Staphylococcus epidermidis 01B116 assessed as potentiation of benzylpenicillin-induced antibacterial activity by measuring benzylpenicillin MIC at 3.12 ug/ml (Rvb >25 ug/ml)
Test [23] concerns the target Beta-lactamase (Staphylococcus aureus) (UniProt P00807). Conditions: 01A400.
Description: Inhibition of penicillinase in Staphylococcus aureus 01A400 assessed as potentiation of benzylpenicillin-induced antibacterial activity by measuring benzylpenicillin MIC at 3.12 ug/ml (Rvb = 200 ug/ml)
Test [24] concerns Haemophilus influenzae. Conditions: 54A042.
Test [25] concerns Bacteroides fragilis. The following applies: 78C004.
Description: Inhibition of beta-lactamase in Bacteroides fragilis 78C004 assessed as potentiation of benzylpenicillin-induced antibacterial activity by measuring benzylpenicillin MIC at 3.12 ug/ml (Rvb = 200 ug/ml)

Values after ≈ are worked out from the molar mass of the structure shown.

Beta-lactamase TEM (Escherichia coli), sequence (P62593 whole entry): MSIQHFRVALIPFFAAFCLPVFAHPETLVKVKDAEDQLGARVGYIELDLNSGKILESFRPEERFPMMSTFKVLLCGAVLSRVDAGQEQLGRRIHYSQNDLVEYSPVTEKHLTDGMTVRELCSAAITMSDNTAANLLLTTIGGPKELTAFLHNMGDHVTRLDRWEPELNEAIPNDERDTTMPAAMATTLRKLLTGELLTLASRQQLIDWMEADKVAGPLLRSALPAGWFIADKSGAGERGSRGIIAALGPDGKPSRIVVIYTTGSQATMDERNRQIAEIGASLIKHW
Beta-lactamase (Staphylococcus aureus), sequence (P00807 whole entry): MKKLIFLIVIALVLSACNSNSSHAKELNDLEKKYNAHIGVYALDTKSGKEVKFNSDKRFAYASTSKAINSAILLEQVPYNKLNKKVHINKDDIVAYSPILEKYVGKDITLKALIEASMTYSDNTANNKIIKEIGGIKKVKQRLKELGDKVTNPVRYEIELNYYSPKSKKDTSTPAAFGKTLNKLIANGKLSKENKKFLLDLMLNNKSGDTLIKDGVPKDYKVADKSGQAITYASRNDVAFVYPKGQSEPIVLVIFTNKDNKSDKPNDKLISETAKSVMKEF

As for `NC(=O)[C@@H]1CC[C@@H]2CN1C(=O)N2OS(=O)(=O)O`, the MIC in [1] came out at 0.5 µg/mL; in [2], 2 µg/mL; in test [3], 1 µg/mL; in test [4], 0.5 µg/mL; in test [5], 0.5 µg/mL; in test [6], 4 µg/mL.
Take `CC[C@H](/C=C/[C@@H](C)[C@H]1CC[C@H]2[C@@H]3CC=C4C[C@@H](O)CC[C@]4(C)[C@H]3CC[C@]12C)C(C)C` [STIGMASTEROL]: the “fractional inhibitory concentration index (FICI)” value in test [7], in test [10] and in [13] was below 0.5 each time. Moreover, the MIC in test [8] is 3.13 µg/mL; in test [9] it was 1.56 µg/mL; in test [11] it was 6.25 µg/mL; in [12] it was 6.25 µg/mL.
In the case of `CC1=CC(=O)c2ccccc2C1=O` [MENADIONE], the MIC in [14], in test [15], in test [16], in [17], in test [18] and in test [19] was 2.4 µg/mL in each case. In addition, the MIC in test [20] and in test [21] was 2.4 µg/mL each time.
Turning to `CC1(C)[C@H](C(=O)O)N2C(=O)C[C@H]2S1(=O)=O`, the MIC in test [22] stood at 1.56 µg/mL (≈ 6.69 µM); in test [23] it was 1.56 µg/mL (≈ 6.69 µM); in [24] it was 1.56 µg/mL (≈ 6.69 µM); in [25] it was 3.12 µg/mL (≈ 13.4 µM).
